Assay results taken from US9422339B2, “Immunomodulating cyclic compounds” (Aurigene Discovery Technologies Limited, priority 2012, dated 2016).
Read-outs that look alike come from different tables or passages of the source. Where a SMILES comes first, the peptide text is derived from it. Bridges are numbered along the chain shown (N, C = ends). [ ]: non-standard residue; d: D form. ξ: configuration not given here. ξE = NC(CCC(=O)O)C(=O)O; ξQ = NC(=O)CCC(N)C(=O)O; ξK = NCCCCC(N)C(=O)O; Ahx = NCCCCCC(=O)O; ξS = NC(CO)C(=O)O

Legend:
PD1-PDL1 interaction = molecular target: T1, PD1-PDL1 interaction (Homo sapiens, UniProt Q9NZQ7); assay: CFSE mouse splenocyte proliferation assay (FACS), co-culture with MDA-MB-231 tumor cells expressing PD-L1; format: cell-based; details: for % Splenocyte proliferation: mouse splenocytes stimulated with anti-CD3/CD28, co-culture with MDAMB231 over expressing PDL1, 72 hrs, background 13, stimulated splenocytes 72
T1 construct: endogenous in cells; host or cells: MDA-MB-231 tumor cells (PD-L1); primary splenocytes of C57BL/6 mice (PD-1)
T1 sequence (Q9NZQ7 19-290): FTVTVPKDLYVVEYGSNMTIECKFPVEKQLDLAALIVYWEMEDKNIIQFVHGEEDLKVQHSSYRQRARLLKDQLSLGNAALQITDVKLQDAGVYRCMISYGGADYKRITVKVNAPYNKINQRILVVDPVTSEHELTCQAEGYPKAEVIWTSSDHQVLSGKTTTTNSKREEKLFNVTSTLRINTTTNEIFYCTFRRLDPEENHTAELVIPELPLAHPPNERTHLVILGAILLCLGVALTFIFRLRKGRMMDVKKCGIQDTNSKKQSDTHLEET
Method: The effect of PD1 derived peptides on mouse splenocyte proliferation inhibited by PDL1/PDL2 or tumor cells expressing PDL; analyzed by Fluorescence Activated Cell Shorting (FACS) method using CFSE labeling. Mouse splenocytes harvested from 6-8 weeks old C57 BL6 mice; RPMI 1640 (GIBCO, Cat #11875); DMEM with high glucose (GIBCO, Cat # D6429); Fetal Bovine Serum [Hyclone, Cat # SH30071.03]; Penicillin (10000 unit/ml)-Streptomycin (10,000 μg/ml) Liquid (GIBCO, Cat #15140-122); MEM Sodium Pyruvate solution 100 mM (100×), Liquid (GIBCO, Cat #11360); Nonessential amino acid (GIBCO, Cat #11140); L-Glutamine (GIBCO, Cat #25030); Anti-CD3 antibody (eBiosciences—16-0032); Anti-CD28 antibody (eBiosciences—16-0281); ACK lysis buffer (1 mL) (GIBCO, Cat #—A10492); Histopaque (density-1.083 gm/ml) (SIGMA 10831); Trypan blue solution (SIGMA-T8154); 2 ml Norm Ject Luer Lock syringe—(Sigma 2014-12); 40 μm nylon cell strainer (BD FALCON 35230); Hemacytometer (Bright line-SIGMA Z359629); FACS Buffer (PBS/0.1% BSA): Phosphate Buffered Saline (PBS) pH 7.2 (HiMedia TS1006) with 0.1% Bovine Serum Albumin (BSA) (SIGMA A7050) and sodium azide (SIGMA 08591); 5 mM stock solution of CFSE: CFSE stock solution was prepared by diluting lyophilized CFSE with 180 μL of Di methyl Sulfoxide (DMSO C2H6SO, SIGMA-D-5879) and aliquoted in to tubes for further use. Working concentrations were titrated from 10 μM to 1 μM. (eBioscience—650850-85); 0.05% Trypsin and 0.02% EDTA (SIGMA 59417C); 96-well format ELISA plates (Corning CLS3390); BD FACS caliber (E6016). Splenocytes harvested in a 50 ml falcon tube by mashing spleen in a 40 μm cell strainer were further treated with 1 ml ACK lysis buffer for 5 mins at room temperature. After washing with 9 ml of RPMI complete media, cells were re-suspended in 3 ml of 1×PBS in a 15 ml tube. 3 ml of histopaque was added very carefully to the bottom of the tube without disturbing overlaying splenocyte suspension. Spin the tube at 800×g for 20 mins at room temperature. Opaque layer of lymphocytes was collected carefully without disturbing/mixing any of the layers. Cells were washed twice with cold 1×PBS followed by total cell counting using trypan blue exclusion method and used further for cell based assays. Tumor cells were cultured and maintained in high glucose complete DMEM media. 1×10^5 tumor cells were plated in 96 well plates along with required conc. of PD1 derived peptide and allowed to adhere at 37° C. for 4 hrs. 1×10^6 cells/ml of harvested splenocytes were treated with 5 μM of CFSE in pre warmed 1×PBS/0.1% BSA solution for 10 mins at 37° C. Excess CFSE was quenched using 5 volumes of ice-cold culture media to the cells and incubated on ice for 5 mins. CFSE labeled splenocytes were further given three washes with ice cold complete DMEM media. CFSE labeled 1×10^5 splenocytes were added to above wells containing tumors cells and PD1 peptides. Splenocytes were stimulated with anti-CD3 and anti-CD28 antibody (1 μg/ml each) and the co-culture was further incubated for 72 hrs at 37° C. with 5% CO2. Cells were harvested and washed thrice with ice cold FACS buffer and % proliferation was analyzed using a FACS caliber with 488 nm excitation and 521 nm emission filters. Each experimental condition was carried out in triplicates and each experiment at least carried out three times % splenocyte proliferation was analyzed using cell quest FACS program and fold induction was calculated by normalizing individual values to % background proliferation Fold Induction=% splenocyte proliferation/% background proliferation Stimulated splenocytes: Splenocytes+anti-CD3/CD28 stimulation Background proliferation: Splenocytes+anti-CD3/CD28+PDL or Tumor Compound effect was examined by adding required conc. of compound to anti-CD3/CD28 stimulated splenocytes in presence of ligand (PDL-1/PDL-2) or tumor cells.

B16F10 cells = assay: In vivo efficacy on lung metastasis in B16F10 subcutaneous melanoma model; details: C57/Black6 female mice, 5 mg/kg subcutaneously once daily for fourteen days
Method: C57/Black6 female mice (Aurigene, Bangalore, India) aged 6 to 8 weeks were used for the experiment. Animals were acclimatized for a week in the experimental room before conducting the experiment. On day 0, B16F10 cells grown in DMEM containing 10% FBS at 70 to 75% confluency were harvested and 0.1×10^6 cells per animal were injected to mice subcutaneously on the right flank region. On day 1, peptide (Compound #2) at 5 mg/kg dose dissolved in PBS, pH 7.4 was dosed subcutaneously at the rate of 10 ml/kg volume for fourteen days once daily. Vehicle control group of mice received only saline. Taxol at 5 MPK (i.p) with qd dosing was used as reference in this study. Each group consisted of ten animals. Body weight and clinical signs were recorded daily. […] At the end of 14 days of dosing period lung was harvested and analysed for metastasis by counting the black nodules.

[1] = % splenocyte proliferation/% background proliferation, MDAMB231 over expressing PDL1, background 1.0, stimulated splenocytes 5.5

| SMILES | Fold induction (PD1-PDL1 interaction) | % Splenocyte proliferation (PD1-PDL1 interaction) [%] | Fold induction (PD1-PDL1 interaction; [1]) | body weight reduction during the period of dosing (B16F10 cells) | clinical signs (B16F10 cells) |
| --- | --- | --- | --- | --- | --- |
| C[C@@H](O)[C@@H]1NC(=O)C(NC(=O)[C@@H](N)CO)CCCCNC(=O)CCC(C(=O)N[C@@H](CO)C(=O)N[C@@H](Cc2ccccc2)C(N)=O)NC(=O)[C@H](CO)NC1=O (stereo partly shown) [Compound 1] (H-S[ξK]TS[ξE]SF-NH2; lactam 2-5) | 4.6 | 60 |  |  |  |
| C[C@@H](O)[C@@H]1NC(=O)[C@@H](NC(=O)[C@@H](N)CO)CCC(=O)NCCCC[C@@H](C(=O)N[C@@H](CO)C(=O)N[C@@H](Cc2ccccc2)C(N)=O)NC(=O)[C@H](CO)NC1=O [Compound 2] (H-SETSKSF-NH2; lactam 2-5) |  | 57 | 4.3 | no body weight reduction | no clinical signs observed |
| C[C@@H](O)[C@@H]1NC(=O)C(NC(=O)[C@@H](N)CCC(=O)O)CCC(=O)NCCCCC(C(=O)N[C@@H](CO)C(=O)N[C@@H](Cc2ccccc2)C(N)=O)NC(=O)[C@H](CO)NC1=O (stereo partly shown) [Compound 4] (H-E[ξE]TS[ξK]SF-NH2; lactam 2-5; N-terminus assumed) |  | 36 | 2.8 |  |  |
| CC[C@H](C)[C@H](NC(=O)[C@H](CO)NC(=O)C1CCCCNC(=O)CCC(NC(=O)[C@@H](N)CO)C(=O)N[C@@H]([C@@H](C)O)C(=O)N[C@@H](CO)C(=O)N1)C(N)=O (stereo partly shown) [Compound 5] (H-S[ξE]TS[ξK]SI-NH2; lactam 2-5; N-terminus assumed) |  | 42 | 3.2 |  |  |
| CC[C@H](C)[C@H](N)C(=O)NC1CCC(=O)NCCCCC(C(=O)N[C@@H](CO)C(=O)N[C@@H](Cc2ccccc2)C(N)=O)NC(=O)[C@H](CO)NC(=O)[C@H]([C@@H](C)O)NC1=O (stereo partly shown) [Compound 6] (H-I[ξE]TS[ξK]SF-NH2; lactam 2-5; N-terminus assumed) |  | 55 | 4.2 |  |  |
| CC(C)[C@H](NC(=O)C1CCCCNC(=O)CCC(NC(=O)[C@@H](N)CO)C(=O)N[C@@H]([C@@H](C)O)C(=O)N[C@@H](CO)C(=O)N1)C(=O)N[C@@H](Cc1ccccc1)C(N)=O (stereo partly shown) [Compound 7] (H-S[ξE]TS[ξK]VF-NH2; lactam 2-5; N-terminus assumed) |  | 52 | 4.0 |  |  |
| CC[C@H](C)[C@H](N)C(=O)NC1CCC(=O)NCCCCC(C(=O)N[C@@H](CO)C(=O)NC(CCC(N)=O)C(=O)O)NC(=O)[C@H](CO)NC(=O)[C@H](CCSC)NC1=O (stereo partly shown) [Compound 11] (H-I[ξE]MS[ξK]S[ξQ]-OH; lactam 2-5; N-terminus assumed) |  | 54 | 4.2 |  |  |
| CC[C@H](C)[C@H](N)C(=O)NC1CCC(=O)NCCCCC(C(=O)N[C@H](C(=O)NC(CCC(N)=O)C(=O)O)C(C)C)NC(=O)[C@H](CO)NC(=O)[C@H](CCSC)NC1=O (stereo partly shown) [Compound 12] (H-I[ξE]MS[ξK]V[ξQ]-OH; lactam 2-5) |  | 39 | 3.0 |  |  |
| C[C@@H](O)[C@@H]1NC(=O)[C@H](CC(N)=O)NC(=O)C(CO)NC(=O)C(CCC(N)=O)NC(=O)[C@H](Cc2ccccc2)NC(=O)[C@H](CO)NC(=O)[C@H](CCC(=O)O)NC(=O)[C@H](CO)NC1=O (stereo partly shown) [Compound 14] (cyclo(ESF[ξQ][ξS]NTS)) |  | 55 | 4.2 |  |  |
| C[C@@H](O)[C@@H]1NC(=O)[C@H](CC(N)=O)NC(=O)C(CO)NC(=O)C(CCC(N)=O)NC(=O)CCCCCNC(=O)[C@H](Cc2ccccc2)NC(=O)[C@H](CO)NC(=O)[C@H](CCC(=O)O)NC(=O)[C@H](CO)NC1=O (stereo partly shown) [Compound 15] (cyclo([Ahx][ξQ][ξS]NTSESF)) | 4 | 53 |  |  |  |
| C[C@@H](O)[C@@H]1NC(=O)[C@H](CCC(=O)O)NC(=O)C(CO)NC(=O)C(CCC(N)=O)NC(=O)[C@H](Cc2ccccc2)NC(=O)[C@H](CO)NC(=O)[C@H](CCCCN)NC(=O)[C@H](CO)NC1=O (stereo partly shown) [Compound 16] (cyclo(ETSKSF[ξQ][ξS])) |  | 36 | 2.8 |  |  |
| C[C@@H](O)[C@@H]1NC(=O)[C@H](CCC(=O)O)NC(=O)C(CO)NC(=O)CCCCCNC(=O)C(CCC(N)=O)NC(=O)[C@H](Cc2ccccc2)NC(=O)[C@H](CO)NC(=O)[C@H](CCCCN)NC(=O)[C@H](CO)NC1=O (stereo partly shown) [Compound 17] (cyclo([Ahx][ξS]ETSKSF[ξQ])) |  | 42 | 3.2 |  |  |
| C[C@@H](O)[C@@H]1NC(=O)[C@H](CCC(=O)O)NC(=O)C(CO)NC(=O)CCC(C(N)=O)NC(=O)[C@H](Cc2ccccc2)NC(=O)[C@H](CO)NC(=O)[C@H](CCCCN)NC(=O)[C@H](CO)NC1=O (stereo partly shown) [Compound 20] ([ξS]ETSKSF[ξE]-NH2; lactam N-8) |  | 36 | 2.8 |  |  |
